{
  "source": "paper PMC10693631",
  "about": "“A multi-reservoir extruder for time-resolved serial protein crystallography and compound screening at X-ray free-electron lasers” (Nature Communications, 2023)",
  "target": "T1, Krokinobacter eikastus rhodopsin 2 (KR2) (Dokdonia eikasta, UniProt N0DKS8)",
  "T1 construct": "gene NaR; light-driven sodium pump, membrane protein crystallised in monoolein LCP; expression and purification only cited",
  "T1 sequence (N0DKS8 1-280)": "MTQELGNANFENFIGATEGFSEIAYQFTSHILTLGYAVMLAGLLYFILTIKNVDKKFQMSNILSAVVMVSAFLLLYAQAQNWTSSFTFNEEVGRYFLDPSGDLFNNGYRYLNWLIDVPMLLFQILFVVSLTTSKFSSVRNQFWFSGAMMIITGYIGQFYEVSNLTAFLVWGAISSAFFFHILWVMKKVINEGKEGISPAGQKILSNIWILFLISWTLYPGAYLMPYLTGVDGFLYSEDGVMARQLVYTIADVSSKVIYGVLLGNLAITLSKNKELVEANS",
  "test": "time-resolved serial femtosecond crystallography (XFEL, room temperature), dark state",
  "format": "binding",
  "details": "covalent, light state 1 us after 575 nm pulse deposited as 8CL8, crystals shifted to pH 9.0, 150 mM NaCl",
  "data": [
    {"smiles": "CC1=C(/C=C/C(C)=C/C=C/C(C)=C/C=O)C(C)(C)CCC1", "note": "[retinal]", "values": [
      {"measurement": "time-resolved serial femtosecond crystallography (XFEL, room temperature), dark", "result": "examining structural changes after photoactivation of its retinal chromophore"}
    ]}
  ]
}
